Measured values: patent US20250019379A1, “NEW CRYSTAL FORM OF COMPOUND, AND PREPARATION METHOD THEREFOR AND USE THEREOF” (E-nitiate Biopharmaceuticals (Hangzhou) Co., Ltd, priority 2021, published 2025)
Where “and” joins values, the source holds several entries; their conditions need not be identical. Equal values may be shown once. Marks after values point to notes of the source that are not given here.

System: atopic dermatitis animal model
Experiment: Atopic dermatitis animal model (dinitrochlorobenzene induced)
Assay type: in vivo, BALB/C mice
Settings: for Inhibition rate of auricular thickening / Inhibition rate of skin thickening: 10th day of treatment
Description: BALB/C mice, 55 pieces, female, were 6 weeks old at the time of purchase and 8 weeks old at the time of experiment, weighing 18 g-20 g. The animals were from Shanghai Lingchang Biotechnology Co, Ltd (SCXK (Shanghai) 2018-0003), experimental animal production certificate number 20180003012342: experimental animal use license number; SYXK(Shanghai)2020-0001 (Via Biotechnology (Shanghai) Ltd.).
Modeling and administration method; Use depilatory cream to remove the hair of an area of about 5 cm×2 cm from the top of the head to the back of each animal. The application time of the depilatory cream should be controlled within 2 minutes. Wash the depilated area with warm water and wash off the depilatory agent, immediately use a hair dryer to dry the animal's hair, and place the animal on a 37° C. constant-temperature electric blanket for 1 h-2 h. After the animal moves freely, place it in a breeding cage and recover for 1 day (if the animal's skin is red, swollen and damaged after hair removal, it will its elimination). On the second day, 42 animals with normal skin were selected and randomly divided into groups according to body weight, with 6 animals in each group, totaling 7 groups. Except for the G1 normal control group, each animal in the other groups was evenly smeared with 200 μL of 0.5 wt % dinitrochlorobenzene solution (the solvent was acetone and olive oil with a mass ratio of 3:1) on the back and auricle for three consecutive days every day. Induction (the first stage of induction), the second stage of induction started after 14 days, and was induced with 1 wt % dinitrochlorobenzene solution (the solvent was acetone and olive oil with a mass ratio of 3:1) every three days until the end of the experiment, start treatment and administration at the same time, and group administration is shown in Table 6.
Skin thickness (double layer): Use a vernier caliper to measure the double layer thickness of the back skin on the 1 day before modeling, and on the 14th, 17th, 20th, 23rd, 26th, and 28th days after modeling.
Auricle thickness: Use a vernier caliper to measure the thickness of the right auricle 1 day before modeling, and on days 14, 17, 20, 23, 26, and 28 after modeling.
AD-SI score: The condition score refers to the clinical SI scoring standard, and scores three indicators: skin color/erythema, scaly erythema, scaly/peeling/lichenification, thickening, and thickening/edema degree. The total score is 12 points. Scoring standard as follows:
Erythema/skin color: 0 points, none; 1 points, slight: light red; 2 points, moderate: red; 3 points, significant: dark red; 4 points, very obvious: extremely deep red.
Scaling/peeling/lichenification: 0 points, none; 1 point, slight: there are scales/peeling/lichenification on part of the epidermis, mainly subtle; 2 points, moderate: most of the skin surface is completely or incompletely covered with Scaling/peeling/lichenification, flaky; 3 points, significant: almost all skin is covered with scales/peeling/lichenification, and the scales/peeling/lichenification are thick and layered; 4 points, very obvious: all skin is covered with Scaling/peeling/lichenification, very thick and layered.
Thickening/edema: 0 points, none: flush with normal skin; 1 points, slight: slightly higher than the normal skin surface: 2 points, moderate: moderately raised, with round or sloped plaque edges: 3 points, obvious Score: The plaque is hypertrophic and the bulge is obvious; 4 points, very significant: it is highly thickened and the bulge is very obvious. Skin/auricle hyperplasia inhibition rate (%)=1−[(skin/auricle thickness of the treatment group−skin/auricle thickness of the blank control group)/skin/auricle thickness of the negative control group−skin/auricle of the blank control group thickness)]%.
All data are expressed as Mean±SD or Mean±SEM. Use the statistical analysis software SPSS23.0 to conduct normal distribution and homogeneity of variance tests on the data. […]

[1] = 3 mg/kg oral twice a day, Day 0
[2] = 3 mg/kg oral twice a day, Day 1
[3] = 3 mg/kg oral twice a day, Day 4
[4] = 3 mg/kg oral twice a day, Day 7
[5] = 3 mg/kg oral twice a day, Day 10
[6] = 10 mg/kg oral twice a day, listed as crystalline form A
[7] = 10 mg/kg oral twice a day, Day 0
[8] = 10 mg/kg oral twice a day, Day 1
[9] = 10 mg/kg oral twice a day, Day 4
[10] = 10 mg/kg oral twice a day, Day 7
[11] = 10 mg/kg oral twice a day, Day 10
[12] = 10 mg/kg oral twice a day, Day 10, listed as crystalline form A
[13] = 30 mg/kg oral twice a day, listed as crystalline form A
[14] = 30 mg/kg oral twice a day, Day 0
[15] = 30 mg/kg oral twice a day, Day 1
[16] = 30 mg/kg oral twice a day, Day 4
[17] = 30 mg/kg oral twice a day, Day 7
[18] = 30 mg/kg oral twice a day, Day 10
[19] = 30 mg/kg oral twice a day, Day 10, listed as crystalline form A

C[C@@H](O)c1nc2cnc3[nH]ccc3c2n1N1CCC(CC#N)CC1 [Crystalline form A, (R)-2-(1-(2-(1-hydroxyethyl)imidazo[4,5-d]pyrrolo[2,3-b]pyridine-1(6H)-yl)piperidin-4-yl)acetonitrile]
Inhibition rate of auricular thickening (3 mg/kg oral twice a day): 37.93%
Inhibition rate of skin thickening (3 mg/kg oral twice a day): 14.43%
AD-SI score [1]: 0.00 points
Average auricle thickness [1]: 0.20 ± 0.00 mm
Average skin thickness (double layer) [1]: 0.63 ± 0.01 mm
AD-SI score [2]: 0.00 points
Average auricle thickness [2]: 0.22 ± 0.01 mm
Average skin thickness (double layer) [2]: 0.98 ± 0.01 mm
AD-SI score [3]: 1.00 ± 0.00 points
Average auricle thickness [3]: 0.30 ± 0.01 mm
Average skin thickness (double layer) [3]: 1.08 ± 0.01 mm
AD-SI score [4]: 6.50 ± 1.05 points
Average auricle thickness [4]: 0.39 ± 0.03 mm
Average skin thickness (double layer) [4]: 1.85 ± 0.12 mm
AD-SI score [5]: 5.83 ± 0.75 points
Average auricle thickness [5]: 0.57 ± 0.04 mm and 0.57 mm
Average skin thickness (double layer) [5]: 2.35 ± 0.15 mm and 2.35 mm
Inhibition rate of auricular thickening (10 mg/kg oral twice a day): 43.10%
Inhibition rate of skin thickening (10 mg/kg oral twice a day): 20.40%
Inhibition rate of auricular thickening [6]: 43.1%
Inhibition rate of skin thickening [6]: 20.4%
AD-SI score [7]: 0.00 points
Average auricle thickness [7]: 0.20 ± 0.01 mm
Average skin thickness (double layer) [7]: 0.60 ± 0.02 mm
AD-SI score [8]: 0.00 points
Average auricle thickness [8]: 0.23 ± 0.01 mm
Average skin thickness (double layer) [8]: 0.94 ± 0.02 mm
AD-SI score [9]: 0.50 ± 0.55 points
Average auricle thickness [9]: 0.32 ± 0.01**^ mm
Average skin thickness (double layer) [9]: 1.14 ± 0.04 mm
AD-SI score [10]: 5.83 ± 1.17 points
Average auricle thickness [10]: 0.43 ± 0.03 mm
Average skin thickness (double layer) [10]: 1.49 ± 0.09 mm
AD-SI score [11]: 4.67 ± 0.52 points
Average auricle thickness [11]: 0.54 ± 0.07 mm and 0.54 mm
Average skin thickness (double layer) [11]: 2.23 ± 0.17 mm and 2.23 mm
AD-SI score [12]: 4.67 points
Average auricle thickness [12]: 0.54 mm
Average skin thickness (double layer) [12]: 2.23 mm
Inhibition rate of auricular thickening (30 mg/kg oral twice a day): 50.00%
Inhibition rate of skin thickening (30 mg/kg oral twice a day): 53.73%
Inhibition rate of auricular thickening [13]: 50%
Inhibition rate of skin thickening [13]: 53.73%
AD-SI score [14]: 0.00 points
Average auricle thickness [14]: 0.21 ± 0.01 mm
Average skin thickness (double layer) [14]: 0.62 ± 0.02 mm
AD-SI score [15]: 0.00 points
Average auricle thickness [15]: 0.22 ± 0.01 mm
Average skin thickness (double layer) [15]: 0.79 ± 0.05 mm
AD-SI score [16]: 0.50 ± 0.55 points
Average auricle thickness [16]: 0.29 ± 0.02 mm
Average skin thickness (double layer) [16]: 1.05 ± 0.03 mm
AD-SI score [17]: 3.00 ± 2.19 points
Average auricle thickness [17]: 0.32 ± 0.01 mm
Average skin thickness (double layer) [17]: 1.01 ± 0.08 mm
AD-SI score [18]: 3.50 ± 1.39 points
Average auricle thickness [18]: 0.50 ± 0.03 mm and 0.50 mm
Average skin thickness (double layer) [18]: 1.56 ± 0.21 mm and 1.56 mm
AD-SI score [19]: 3.5 points
Average auricle thickness [19]: 0.5 mm
Average skin thickness (double layer) [19]: 1.56 mm
